Test systems include SK-OV-3; SW-620; RXF 393; BT-549; OVCAR-5; UACC-62; SF-295; MDA-MB-231; NCI-H522; A549; Hs-578T; HCT-15; HCC 2998; EKVX; HOP-62; MCF7; M14; PC-3; HL-60.
Holding throughout (assay): NCI tumour cell line growth inhibition, 48 h

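Values below derive from 48-hour exposures of cells grown in 96-well plates, with endpoints linearly interpolated between the two concentrations bracketing the appropriate inhibition level. GI50 marks 50% less growth.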 The source made the active and inactive calls. No stated cut-off is given here; in the data, active = GI50 up to about 1.1 µM and inactive = higher.

On to `O=C1Nc2ccccc2/C1=C/c1c(Cl)[nH]c2ccc(O)cc12`, for which the GI50 was 1.71 µM (inactive) in the test with SK-OV-3; 1.18 µM (inactive) with SW-620; 2.36 µM (inactive) in the test with RXF 393; 4.84 µM (inactive) with BT-549; 4.04 µM (inactive) with OVCAR-5; 0.681 µM (active) in the test on UACC-62. The GI50 in the test with SF-295 is 2.79 µM (inactive); in the test with MDA-MB-231, 1.79 µM (inactive); in the test with NCI-H522, 1.3 µM (inactive); in the test on A549 it was 4.54 µM (inactive); in the test with Hs-578T, 3.99 µM (inactive); in the test on HCT-15, 0.971 µM. For the same compound, the GI50 in the test with HCC 2998 is 11.7 µM (inactive); with EKVX it was 3.28 µM (inactive); in the test with HOP-62 it was 2.59 µM (inactive); in the test on MCF7, 1.17 µM (inactive); with M14, 1.36 µM (inactive); with PC-3, 2.32 µM (inactive). Besides, in the test with HL-60, the GI50 is 0.836 µM (active).
Regarding `Cc1ccc2c(O)cc(-c3ccc(C)s3)nc2n1`, the GI50 with SK-OV-3 was 0.746 µM (active); in the test with SW-620 it was 0.106 µM (active); with RXF 393 it was 0.656 µM (active); in the test with BT-549, 0.804 µM (active); with OVCAR-5, 1.91 µM (inactive); in the test on UACC-62, 0.35 µM (active). Also, the GI50 in the test with SF-295 was 0.267 µM (active); with MDA-MB-231, 1.73 µM (inactive); with NCI-H522, 0.219 µM (active); in the test on A549, 0.531 µM (active); in the test on Hs-578T it was 0.297 µM (active); with HCT-15 it was 0.0863 µM. The GI50 in the test with HCC 2998 is 0.805 µM (active); in the test on EKVX, 2.95 µM (inactive); in the test on HOP-62 it was 1.07 µM (active); with MCF7 it was 0.27 µM (active); in the test on M14, 0.303 µM (active); with PC-3, 0.234 µM (active). In addition, the GI50 in the test with HL-60 was 0.0775 µM (active).
For the compound `C=C(C(=O)O[C@H]1C/C(C)=C/CC/C(CO)=C/[C@H]2C(=O)OC(=C)[C@H]12)C(O)CO` (some centres not stated), the GI50 in the test with SK-OV-3 is 18.5 µM (inactive); in the test on SW-620, 3.71 µM (inactive); in the test on RXF 393 it was 8.28 µM (inactive); with BT-549, 14.4 µM (inactive); in the test with OVCAR-5 it was 17.3 µM (inactive); in the test with UACC-62, 17.5 µM (inactive). Moreover, the GI50 with SF-295 is 26.1 µM (inactive); in the test on MDA-MB-231, 17.9 µM (inactive); in the test with NCI-H522 it was 1.68 µM (inactive); in the test on A549 it was 22.9 µM (inactive); with Hs-578T, 23.5 µM (inactive); in the test with HCT-15, 8.05 µM. Moreover, the GI50 was 16.4 µM (inactive) with HCC 2998; 17.3 µM (inactive) with EKVX; 24.5 µM (inactive) with HOP-62; 11.5 µM (inactive) in the test on MCF7; 12.2 µM (inactive) in the test on M14; 9.77 µM (inactive) in the test with PC-3. In addition, the GI50 in the test with HL-60 is 2.49 µM (inactive).
For the compound `OCC1OC(O[C@H]2CN3[C@H](O)[C@@H](O)[C@H](O)[C@H]3C2O)C(O)C(O)C1O` (some centres not stated), the GI50 in the test on SK-OV-3, in the test with SW-620, in the test with RXF 393, with BT-549, with OVCAR-5 and with UACC-62 was > 100 µM (inactive) throughout. The GI50 is > 100 µM (inactive) in the test on SF-295; > 100 µM (inactive) in the test with MDA-MB-231; > 100 µM (inactive) in the test with NCI-H522; > 100 µM (inactive) with A549; > 100 µM (inactive) with Hs-578T; over 100 µM in the test on HCT-15. Further, the GI50 with HCC 2998, in the test with EKVX, with HOP-62, in the test with MCF7, in the test on M14 and with PC-3 was > 100 µM (inactive) each time. Besides, the GI50 with HL-60 is > 100 µM (inactive).
Regarding `NC1(C(=O)O)CCCC1C(=O)O` (configuration not stated), the GI50 in the test on SK-OV-3, with SW-620, with RXF 393, in the test on BT-549, in the test with OVCAR-5 and in the test on UACC-62 was > 100 µM (inactive) in each case. Further, the GI50 in the test on SF-295 is > 100 µM (inactive); with MDA-MB-231 it was > 100 µM (inactive); in the test with NCI-H522, > 100 µM (inactive); in the test with A549, > 100 µM (inactive); in the test with Hs-578T it was > 100 µM (inactive); in the test with HCT-15, over 100 µM. The GI50 in the test with EKVX, in the test on HOP-62, in the test with MCF7, with M14, in the test with PC-3 and with HL-60 was > 100 µM (inactive) throughout.
Take `C[C@@]1(O)C[C@@H](N2C(=O)O[C@@H](c3ccccc3)[C@H]2c2ccccc2)[C@@H]1COCc1ccccc1`: the GI50 with SW-620 was 26 µM (inactive); in the test on RXF 393, 18.8 µM (inactive); in the test on BT-549 it was 17.5 µM (inactive); in the test with OVCAR-5, 23.1 µM (inactive); in the test with UACC-62 it was 11.3 µM (inactive); with SF-295, 16.4 µM (inactive). Further, the GI50 is 15.5 µM (inactive) with MDA-MB-231; 15 µM (inactive) in the test with NCI-H522; 22.6 µM (inactive) in the test with A549; 21.9 µM (inactive) in the test with Hs-578T; 24.4 µM in the test on HCT-15; 19.8 µM (inactive) in the test with HCC 2998. Besides, the GI50 with EKVX was 20.5 µM (inactive); in the test on HOP-62, 29.2 µM (inactive); with MCF7, 24.5 µM (inactive); in the test on M14 it was 15.8 µM (inactive); with PC-3, 15.9 µM (inactive); in the test with HL-60 it was 6.35 µM (inactive).
For `Nc1nc(Cl)cc(NCC2(CO)CC(OCc3ccccc3)C2)n1` (configuration not stated), the GI50 in the test with SK-OV-3 is > 100 µM (inactive); in the test with SW-620, > 100 µM (inactive); with RXF 393 it was 14.2 µM (inactive); in the test with BT-549, 35.9 µM (inactive); with OVCAR-5, > 100 µM (inactive); in the test with UACC-62 it was 96.4 µM (inactive). Further, the GI50 is > 100 µM (inactive) with SF-295; 63.2 µM (inactive) in the test on MDA-MB-231; 93.1 µM (inactive) in the test on NCI-H522; 54.8 µM (inactive) with A549; > 100 µM (inactive) in the test on Hs-578T; 65.6 µM with HCT-15. The GI50 in the test with HCC 2998 is > 100 µM (inactive); in the test on EKVX it was 7.82 µM (inactive); with HOP-62 it was 68.4 µM (inactive); in the test with MCF7, 30.7 µM (inactive); with PC-3, > 100 µM (inactive); with HL-60 it was 27.3 µM (inactive).
Take `O=[N+]([O-])c1ccc2c(c1)n1c(N3CCCC3)[n+]3ccccc3c1c1c3ccccn3c(N3CCCC3)[n+]21.[O-][Cl+3]([O-])([O-])[O-].[O-][Cl+3]([O-])([O-])[O-]`: the GI50 was 65.9 µM (inactive) in the test with SW-620; > 100 µM (inactive) in the test on RXF 393; > 100 µM (inactive) with BT-549; > 100 µM (inactive) in the test with OVCAR-5; > 100 µM (inactive) in the test on UACC-62; 61.4 µM (inactive) with SF-295. In addition, the GI50 in the test with MDA-MB-231 was > 100 µM (inactive); in the test on NCI-H522, 29 µM (inactive); in the test with A549, > 100 µM (inactive); in the test on Hs-578T it was 83.2 µM (inactive); with HCT-15, over 100 µM; in the test with HCC 2998, > 100 µM (inactive). Further, the GI50 in the test with EKVX was > 100 µM (inactive); with MCF7, 9.46 µM (inactive); in the test with M14, > 100 µM (inactive); in the test on PC-3 it was > 100 µM (inactive); in the test on HL-60 it was 32 µM (inactive).

(Values after ChEMBL document CHEMBL1201862, “PubChem BioAssay data set” (2004).)
